# In paper PMC8291587, “Guanidine Derivatives: How Simple Structural Modification of Histamine H3R Antagonists Has Led to the Discovery of Potent Muscarinic M2R/M4R Antagonists” (ACS Chemical Neuroscience, 2021):
# Read-outs that look alike come from different tables or passages of the source.
# Assays:
# hM5R = biological target: T1, hM5R (Homo sapiens, UniProt P08912); assay: hM5R radioligand binding ([3H]NMS, CHO cell membranes)
# T1 construct: host or cells: CHO cells, stably transfected; crude membranes
# T1 sequence (P08912 1-532): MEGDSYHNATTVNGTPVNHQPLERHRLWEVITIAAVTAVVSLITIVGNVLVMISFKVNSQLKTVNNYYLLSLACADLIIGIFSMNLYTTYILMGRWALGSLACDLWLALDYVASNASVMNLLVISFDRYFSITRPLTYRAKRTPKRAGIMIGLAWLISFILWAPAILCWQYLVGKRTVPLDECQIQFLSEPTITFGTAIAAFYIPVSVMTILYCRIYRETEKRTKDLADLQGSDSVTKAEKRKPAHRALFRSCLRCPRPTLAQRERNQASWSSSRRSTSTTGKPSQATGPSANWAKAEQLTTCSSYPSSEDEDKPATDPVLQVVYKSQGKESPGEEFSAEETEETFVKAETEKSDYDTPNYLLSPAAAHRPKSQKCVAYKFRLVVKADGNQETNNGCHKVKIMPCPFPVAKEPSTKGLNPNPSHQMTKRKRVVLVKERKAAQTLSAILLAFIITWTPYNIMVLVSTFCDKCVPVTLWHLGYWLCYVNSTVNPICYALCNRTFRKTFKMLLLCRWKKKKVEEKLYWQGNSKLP
# Procedure: To clearly explain the obtained outcome, we engaged the radioligand binding experiment. The hM1–hM5 radioligand binding experiments were performed in the membrane fractions of Chinese hamster ovary cells (CHO) stably expressing human variants of muscarinic receptors. N-[^3H]Methylscopolamine was used as the radiolabeled ligand.[39] Three compounds were selected from ex vivo screening on guinea pig ileum. […] This compound is also not completely selective for the remaining muscarinic receptor subtypes with −log Ki values over 6. […] It is also a potent muscarinic M1R antagonist, and the M1R/M2R selectivity ratio is <10. It is worth noting that such nonspecific anticholinergics are often associated with neuropsychiatric and cognitive disturbances and that nonselective muscarinic M1R/M2R antagonists, such as scopolamine, can produce cognitive deficits. Further structural modifications of ADS10227 should be used to increase selectivity toward the M2R, as these may present fewer potential side effects associated with the activation of the phospholipase C signaling pathway.
# The culture was derived from CHO cells stably transfected with the genes of human variants of muscarinic receptors. These were purchased from Missouri S&T cDNA Resource Center (Rolla, MO, USA). Cell cultures and crude membranes were prepared as described previously.[45] […]
# All radioligand binding experiments were optimized and carried out according to general guidelines.[39] […] N-Methylscopolamine binding was measured directly in saturation experiments using six concentrations (30–1000 pM) of [^3H]NMS during incubation for 1 h (M2R), 3 h (M1R, M3R, and M4R), or 5 h (M5R). For calculations of the equilibrium dissociation constant (KD), concentrations of free [^3H]NMS were calculated by subtraction of bound radioactivity from total radioactivity in the sample and fitting eq 1 (Experimental Data analysis section). The binding of the tested ligands was determined in competition experiments with 100 pM [^3H]NMS. […] Nonspecific binding was determined in the presence of 1 μM unlabeled atropine. […]
# hH3R = biological target: T2, hH3R (Homo sapiens, UniProt Q9Y5N1); assay: hH3R radioligand displacement binding assay ([3H]-Nα-methylhistamine, HEK-293 cell membranes); settings: [3H]-Nα-methylhistamine; HEK-293 membranes; read-out: hH3R -log(Ki) ± sem (converted)
# T2 construct: expressed in transfected cells; membrane fractions
# Procedure: [^3H]-N^α-Methylhistamine was used as a radiolabeled ligand.
# The radioligand displacement binding assay was performed in membrane fractions of HEK-293 cells stably expressing hH3R. Cell cultivation and membrane preparation were performed according to Kottke et al.[43] […] The total assay volume was set to 200 μL. The compounds were tested in several appropriate concentrations between 100 μM and 0.1 nM. Pipetting was partly done by Freedom Evo (Tecan). […] The membrane fraction (20 μg/well), test compounds, and radiolabeled ligand were incubated for 90 min at 25 °C while shaking. The bound radioligand was separated from free radioligand by filtration through GF/B filters pretreated with 0.3% (m/v) polyethylenimine using a cell harvester. Radioactivity was determined by liquid scintillation counting using a MicroBeta Trilux (PerkinElmer). The data were obtained in duplicates in at least three independent experiments. Nonspecific binding was subtracted from the raw data to calculate specific-binding values. The evaluation was performed with GraphPad Prism 6.1 (San Diego, CA, USA) using nonlinear regression (one-site competition with a logarithmic scale). The Ki values were calculated from the IC50 values using the Cheng–Prusoff equation.[44] The statistical calculations were performed on −log Ki. The mean values and 95% confidence intervals were transformed to nanomolar concentrations.
# [1] = read-out: hM5R -log(Ki) ± sem (converted)
# T2 sequence (Q9Y5N1 whole entry): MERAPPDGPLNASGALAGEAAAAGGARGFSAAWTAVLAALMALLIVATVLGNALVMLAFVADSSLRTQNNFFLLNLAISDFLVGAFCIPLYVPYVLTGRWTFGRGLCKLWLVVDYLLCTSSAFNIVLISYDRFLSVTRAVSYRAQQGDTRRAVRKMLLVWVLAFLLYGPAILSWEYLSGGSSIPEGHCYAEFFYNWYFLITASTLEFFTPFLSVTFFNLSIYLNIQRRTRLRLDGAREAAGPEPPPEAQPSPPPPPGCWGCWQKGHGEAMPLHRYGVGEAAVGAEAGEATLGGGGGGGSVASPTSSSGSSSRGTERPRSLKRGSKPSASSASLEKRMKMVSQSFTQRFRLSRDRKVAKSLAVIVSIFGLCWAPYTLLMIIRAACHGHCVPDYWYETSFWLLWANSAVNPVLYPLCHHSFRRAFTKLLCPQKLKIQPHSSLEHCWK
Compound,Ki (hM5R; hM5R -log(Ki) ± sem),Ki (hH3R),Ki (hM5R; [1])
N=C(N)N(CCCCN1CCN(CCCCCCCOc2ccccc2)CC1)Cc1ccccc1 [ADS1017],0.468 µM,–,–
"N=C(N)N(CCCCN1CCN(C[C@H]2CC[C@@H](COc3ccccc3)CC2)CC1)Cc1ccccc1 [ADS10227, 1-{4-{4-{[4-(phenoxymethyl)cyclohexyl]methyl}piperazin-1-yl}but-1-yl}-1-(benzyl)guanidine]",–,5.89 µM,0.195 µM
[H]/N=C(/N)N(CCCCN1CCN(CC2CCC(COc3ccccc3)CC2)CC1)Cc1ccc(C(F)(F)F)cc1 (centres unmarked) [ADS10239],–,2.34 µM,0.832 µM
